The values below come from publication PMC9542405, “Design, synthesis and antitumor activity of 5-trifluoromethylpyrimidine derivatives as EGFR inhibitors” (Journal of Enzyme Inhibition and Medicinal Chemistry, 2022).

The subject of one series is MCF-7 cells. Kind of series: In vitro activity against cancer cell lines (MTT), MCF-7. The series is classed as cell-based. As to conditions: Homo sapiens, MCF7, mean ± SD of three replicates.
The test system of series [1] is A549 cells. Kind of series: In vitro activity against cancer cell lines (MTT), A549. The series is classed as cell-based. The settings on record: Homo sapiens, mean ± SD of three replicates.
Text: (§1) Co., Ltd. A549 (Human non-small-cell lung cancer cell line) cells, MCF-7 (Human breast cancer
(§2) cell line) cells, and PC-3 (Human prostate cancer cell line) cells. They were all purchased from the
(§3) Shanghai Cell Bank of the Chinese Academy of Sciences. NRK-52E (Normal rat kidney cell line)
(§4) cells donated by Guizhou Medicinal University were also used to evaluate the cytotoxicity.
A further series has as its system PC-3 cells. The experiment in a line: In vitro activity against cancer cell lines (MTT), PC-3. The settings on record: Homo sapiens, mean ± SD of three replicates. The series is classed as cell-based.
The target of another series is T1, EGFR^wt-TK (Homo sapiens, UniProt P00533).
T1 construct: purchased
Kind of series: In vitro EGFR^wt-TK assay (ELISA kit). The series is classed as biochemical. As to conditions: mean ± SD of three replicates; for EGFR^wt-TK inhibition rate / inhibition at 1 µM: 1 μM; for inhibition at 1 µM: read-out: EGFR^wt-TK inhibition rate.

For series [2], the system named is NRK-52E (Normal rat kidney cell line) cells. The experiment in a line: Cytotoxicity evaluation against normal cell line (MTT). The series is classed as cell-based. As to conditions: 10 μM. The text has this: Three tumour cells A549, MCF-7, and PC-3 with high expression of EGFR^wt were used to investigate antitumor activities of compounds 9a–9x. NRK-52E (Normal rat kidney cell line) cells were used to evaluate cytotoxicity of compounds 9a–9x. They were all tested with typical MTT method, and Gefitinib were used as positive controls.
NRK-52E (Normal rat kidney cell line) cells were used to evaluate cytotoxicity of compounds 9a–9x.

For series [3], the system named is A549 cells. The experiment in a line: A549 cell cycle analysis (flow cytometry). It is filed as cell-based, Human. Background: Flow cytometry measures light scatter and fluorescence of single cells or particles in a stream.
The subject of series [4] is A549 cells. The experiment in a line: A549 cell apoptosis (Annexin V-FITC/PI flow cytometry). The settings on record: 48 h.
Experimental: And then, the original culture medium was replaced with 0.1 μM, 0.5 μM, and 1 μM compounds (Geftinib or the testing compound) in the cell incubator for 48 h. After trypsin digests cells, the cells were collected after centrifugation, resuspended with PBS and counted. After suspension of the cells with Annexin V – FITC binding solution and mixing with PI staining solution, the fluorescence density was detected by flow cytometry in BD Accuri C6 flow cytometry, which was provided by School of Pharmaceutical Sciences, Guizhou University, China.

Molecules are shown by their SMILES.

T1 sequence (P00533 25-1210): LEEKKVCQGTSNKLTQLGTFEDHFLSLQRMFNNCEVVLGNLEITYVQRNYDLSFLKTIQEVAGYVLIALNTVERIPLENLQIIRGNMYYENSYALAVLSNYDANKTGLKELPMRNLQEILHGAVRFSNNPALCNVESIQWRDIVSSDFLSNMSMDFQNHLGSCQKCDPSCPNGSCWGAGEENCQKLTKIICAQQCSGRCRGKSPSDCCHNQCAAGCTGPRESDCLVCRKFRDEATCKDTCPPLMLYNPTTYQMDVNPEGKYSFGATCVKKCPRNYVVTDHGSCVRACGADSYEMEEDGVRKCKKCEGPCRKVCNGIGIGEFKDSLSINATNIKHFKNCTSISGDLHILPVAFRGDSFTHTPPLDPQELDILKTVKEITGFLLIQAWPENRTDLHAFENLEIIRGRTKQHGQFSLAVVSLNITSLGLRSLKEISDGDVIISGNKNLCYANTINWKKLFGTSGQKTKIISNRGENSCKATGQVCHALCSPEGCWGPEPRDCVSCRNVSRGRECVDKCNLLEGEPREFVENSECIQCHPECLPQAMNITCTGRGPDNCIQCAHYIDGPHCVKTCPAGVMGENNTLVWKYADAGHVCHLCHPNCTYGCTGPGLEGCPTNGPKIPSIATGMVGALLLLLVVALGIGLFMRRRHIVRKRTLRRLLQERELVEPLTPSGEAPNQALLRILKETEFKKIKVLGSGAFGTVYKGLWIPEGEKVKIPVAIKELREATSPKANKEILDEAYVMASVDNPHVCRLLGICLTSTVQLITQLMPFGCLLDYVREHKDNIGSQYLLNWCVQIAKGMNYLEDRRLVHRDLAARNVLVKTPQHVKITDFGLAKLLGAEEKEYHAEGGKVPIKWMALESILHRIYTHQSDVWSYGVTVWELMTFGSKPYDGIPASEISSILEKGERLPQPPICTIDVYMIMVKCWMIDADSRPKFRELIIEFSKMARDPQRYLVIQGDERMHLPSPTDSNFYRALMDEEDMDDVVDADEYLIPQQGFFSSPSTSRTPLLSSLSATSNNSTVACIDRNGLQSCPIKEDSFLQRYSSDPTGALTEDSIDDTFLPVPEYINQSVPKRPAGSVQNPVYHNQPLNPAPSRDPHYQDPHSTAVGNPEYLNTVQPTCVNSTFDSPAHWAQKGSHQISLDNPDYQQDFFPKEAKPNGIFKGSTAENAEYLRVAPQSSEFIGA
Experimental for EGFR^wt-TK: The IC50 values of target compounds against EGFR^wt were calculated from the dose − response curve under Graph-Pad Prism 9, which was tested at the different concentrations.
Text for MCF-7 cells: as §1, §2, §3, §4
Text for PC-3 cells: as §1, §2, §3, §4

The IC50 is the concentration that gives 50% inhibition. A high value points to lower potency. Usually melting point stands for the temperature, or range, at which the solid turns liquid. Broadly, the inhibition is the relative decrease from the control value, in per cent. Take `CNC(=O)c1sccc1Nc1nc(Nc2ccc(NC(=O)C=Cc3ccccc3)cc2)ncc1C(F)(F)F` [Compound 9t, 3-{2-[4-(3-Phenyl-acryloylamino)-phenylamino]-5-trifluoromethyl-pyrimidin-4-ylamino}-thiophene-2-carboxylic acid methylamide]: the melting point lay within 212.5 to 213.8 °C. In the series with MCF-7 cells, this compound displayed an IC50 of 6.45 ± 0.53 µM. The same compound returned an IC50 in the series on A549 cells [1] of 3.67 ± 0.61 µM. This compound also registered an IC50 in the series on PC-3 cells greater than 20 µM. On EGFR^wt-TK, the “EGFR^wt-TK inhibition rate” value turned out to be 53.56 ± 1.69%, the inhibition at 1 µM was greater than 50% and the IC50 came to 260 ± 71 nM.

`CNC(=O)c1sccc1Nc1nc(Nc2ccc(NC(=O)C=Cc3cccc(F)c3)cc2)ncc1C(F)(F)F` [Compound 9u, 3–(2-{4-[3-(3-Fluoro-phenyl)-acryloylamino]-phenylamino} -5-trifluoromethyl-pyrimidin-4-ylamino)-thiophene-2-carboxylic acid methylamide] had a melting point of 237.5 to 238.8 °C. Besides, the “inhibition against NRK-52E cells” value in series [2] is recorded as “less than 5%”. Also, in the series with A549 cells [3] (0.1 μM), the “Proportion of A549 cells at G2/M” value stood at 19.79%. Also, the “Proportion of A549 cells at G2/M” value in the series with A549 cells [3] (1 μM) is on record as 43.92%. The compound also returned an IC50 with MCF-7 cells of 3.24 ± 0.16 µM. Besides, 0.35 ± 0.11 µM corresponded to half-maximal inhibition in the series with A549 cells [1] (IC50). Also, the “Q2-4 (early apoptosis)” value with A549 cells [4] (A549, 0.1 μM) turned out to be 3.39%. The “Q2-4 (early apoptosis)” value with A549 cells [4] (A549, 1 μM) was found to be 52.96%. This compound showed an IC50 with PC-3 cells of 5.12 ± 0.73 µM. Moreover, on EGFR^wt-TK, the “EGFR^wt-TK inhibition rate” value is recorded as 62.73 ± 1.86%, the inhibition at 1 µM was greater than 50% and the IC50 is 91 ± 8.4 nM.

The compound `CNC(=O)c1sccc1Nc1nc(Nc2ccc(NC(=O)C=Cc3ccc(F)cc3)cc2)ncc1C(F)(F)F` [Compound 9v, 3–(2-{4-[3-(4-Fluoro-phenyl)-acryloylamino]-phenylamino}-5-trifluoromethyl-pyrimidin-4-ylamino)-thiophene-2-carboxylic acid methylamide] registered a melting point of 248.8 to 249.1 °C. In addition, in the series on MCF-7 cells, inhibition was half-maximal at 4.13 ± 0.21 µM (IC50). In the series on A549 cells [1], this compound had a concentration for half-maximal inhibition (IC50) of 0.46 ± 0.27 µM. This compound also yielded an IC50 in the series on PC-3 cells of 7.88 ± 1.34 µM. Also, on EGFR^wt-TK, the “EGFR^wt-TK inhibition rate” value was found to be 58.14 ± 1.76%, the inhibition at 1 µM is greater than 50% and 140 ± 53 nM corresponded to half-maximal inhibition (IC50).

Compound `CNC(=O)c1sccc1Nc1nc(Nc2ccc(NC(=O)Nc3cccc(F)c3)cc2)ncc1C(F)(F)F` [Compound 9w, 3-(2-{4-[3–(3-Fluoro-phenyl)-ureido]-phenylamino}-5-trifluoromethyl-pyrimidin-4-ylamino)-thiophene-2-carboxylic acid methylamide] showed a melting point greater than 250 °C. Half-maximal inhibition in the series with MCF-7 cells (IC50) was put at 6.15 ± 0.77 µM. The same compound returned an IC50 in the series on A549 cells [1] of 3.98 ± 0.83 µM. Also, in the series on PC-3 cells, the half-maximal inhibitory concentration (IC50) worked out at 10.6 ± 1.74 µM. The inhibition at 1 µM on EGFR^wt-TK came out at 47.7 ± 1.72%.

As to `CNC(=O)c1sccc1Nc1nc(Nc2ccc(NC(=O)Nc3ccc(F)cc3)cc2)ncc1C(F)(F)F` [Compound 9x, 3–(2-{4-[3–(4-Fluoro-phenyl)-ureido]-phenylamino}-5-trifluoromethyl-pyrimidin-4-ylamino)-thiophene-2-carboxylic acid methylamide], the melting point is greater than 250 °C. This compound also came in with a concentration for half-maximal inhibition (IC50) in the series on MCF-7 cells of 6.38 ± 0.97 µM. The midpoint of inhibition in the series with A549 cells [1], the IC50, lay at 4.25 ± 0.86 µM. The compound also gave an IC50 in the series with PC-3 cells of 11.5 ± 1.23 µM. For the same compound, the inhibition at 1 µM at EGFR^wt-TK was 44.5 ± 1.84%.

`COc1cc2ncnc(Nc3ccc(F)c(Cl)c3)c2cc1OCCCN1CCOCC1` [Gefitinib]: the “Proportion of A549 cells at G2/M” value is on record as 17.32% with A549 cells [3] (0.1 μM), 20.72% in the series on A549 cells [3] (0.5 μM) and 21.45% in the series with A549 cells [3] (1 μM). Besides, the “Q2-4 (early apoptosis)” value with A549 cells [4] (A549, 0.1 μM) is given as 1.03%; with A549 cells [4] (A549, 1 μM) it was 11.98%.
